Active and inactive are the calls of the source.
What was measured:
[1] = target: T1, Bcl-2-related protein A1 (Mus musculus, UniProt Q07440); experiment: Bfl-1 inhibitors blocking BH3 peptide binding, confirmation, biochemical, TR-FRET, mouse Bfl-1 (AID 621);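 note: TR-FRET binding of GST-Bfl-1 to FITC-labelled Bid peptide via terbium antibody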
T1 sequence (Q07440 whole entry): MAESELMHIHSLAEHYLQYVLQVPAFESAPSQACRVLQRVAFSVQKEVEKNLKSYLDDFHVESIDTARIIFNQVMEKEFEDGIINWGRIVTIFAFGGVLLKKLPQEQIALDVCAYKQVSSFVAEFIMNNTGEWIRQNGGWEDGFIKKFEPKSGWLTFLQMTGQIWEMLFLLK

[2] = target: T1, Bcl-2-related protein A1; experiment: Bfl-1 binding inhibitors, SAR follow-up, biochemical, fluorescence polarization (AID 1070)
[3] = target: Glyceraldehyde-3-phosphate dehydrogenase (Homo sapiens, UniProt P04406)
[4] = target: T2, Tyrosine-protein phosphatase non-receptor type 7 (Homo sapiens, UniProt P35236); experiment: inhibitors of human HePTP phosphatase, […], biochemical, absorbance, leukemia target (AID 521); type: functional
T2 sequence (P35236 whole entry): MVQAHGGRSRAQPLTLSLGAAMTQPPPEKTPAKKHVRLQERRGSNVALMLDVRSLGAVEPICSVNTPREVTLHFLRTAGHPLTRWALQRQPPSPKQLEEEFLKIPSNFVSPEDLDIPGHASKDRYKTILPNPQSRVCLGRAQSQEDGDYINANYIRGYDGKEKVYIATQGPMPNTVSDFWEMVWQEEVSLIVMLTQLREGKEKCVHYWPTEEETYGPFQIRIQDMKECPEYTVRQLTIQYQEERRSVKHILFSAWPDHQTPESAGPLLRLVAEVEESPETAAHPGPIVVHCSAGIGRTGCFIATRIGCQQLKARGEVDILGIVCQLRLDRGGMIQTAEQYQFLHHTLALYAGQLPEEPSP

[5] = cells
[6] = cytotoxicity toward NIH3T3 fibroblasts, dose response, counter-screen, cell-based, ATP luminescence, mouse fibroblasts (AID 2010); type: functional;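 note: cells exposed to compound for about 90 hours before reading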
[7] = inhibitors of intracellular T. cruzi replication, confirmation, NIH3T3 host cells, beta-gal luminescence (AID 2044); type: functional, cell-based;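 note: intracellular parasites grown in NIH/3T3 mouse fibroblasts as host cells; luminescent beta-galactosidase reporter signal from transgenic T. cruzi replicating inside host cells; inhibitors lower the luminescence signal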
[8] = target: Fatty acid synthase (Homo sapiens, UniProt P49327); experiment: FAS thioesterase domain inhibitors, dose response, biochemical, kinetic fluorescence intensity (AID 624326); type: functional;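 note: rate of fluorescence rise from hydrolysis of a fluorogenic O-methyl fluorescein ester substrate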
[9] = target: Voltage-gated inwardly rectifying potassium channel KCNH2 (Homo sapiens, UniProt Q12809); experiment: hERG protection from proarrhythmic block, potency, dose response, cell-based, thallium flux (AID 2121); type: ADME
[10] = target: T3, Mannose-6-phosphate isomerase (Homo sapiens, UniProt P34949); experiment: human PMI inhibitors, high substrate, primary screen, biochemical, fluorescence intensity, high mannose 6-phosphate (AID 1220)
T3 sequence (P34949 whole entry): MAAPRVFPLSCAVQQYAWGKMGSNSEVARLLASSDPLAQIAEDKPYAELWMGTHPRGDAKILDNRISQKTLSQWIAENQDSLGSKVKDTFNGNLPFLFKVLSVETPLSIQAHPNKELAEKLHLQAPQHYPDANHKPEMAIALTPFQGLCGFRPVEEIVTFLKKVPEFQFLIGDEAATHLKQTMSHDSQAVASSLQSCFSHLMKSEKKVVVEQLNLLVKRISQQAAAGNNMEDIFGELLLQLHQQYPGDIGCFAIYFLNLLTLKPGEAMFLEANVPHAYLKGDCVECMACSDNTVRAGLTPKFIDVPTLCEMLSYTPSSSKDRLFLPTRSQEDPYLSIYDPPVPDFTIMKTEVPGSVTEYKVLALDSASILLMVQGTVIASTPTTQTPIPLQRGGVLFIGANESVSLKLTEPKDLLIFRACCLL

[11] = target: T4, Replicative DNA helicase DnaB (Mycobacterium tuberculosis, UniProt P9WMR3); experiment: DnaB intein splicing inhibitors, dose response, biochemical, cell-free fluorescence (AID 449749); type: functional
T4 sequence (P9WMR3 whole entry): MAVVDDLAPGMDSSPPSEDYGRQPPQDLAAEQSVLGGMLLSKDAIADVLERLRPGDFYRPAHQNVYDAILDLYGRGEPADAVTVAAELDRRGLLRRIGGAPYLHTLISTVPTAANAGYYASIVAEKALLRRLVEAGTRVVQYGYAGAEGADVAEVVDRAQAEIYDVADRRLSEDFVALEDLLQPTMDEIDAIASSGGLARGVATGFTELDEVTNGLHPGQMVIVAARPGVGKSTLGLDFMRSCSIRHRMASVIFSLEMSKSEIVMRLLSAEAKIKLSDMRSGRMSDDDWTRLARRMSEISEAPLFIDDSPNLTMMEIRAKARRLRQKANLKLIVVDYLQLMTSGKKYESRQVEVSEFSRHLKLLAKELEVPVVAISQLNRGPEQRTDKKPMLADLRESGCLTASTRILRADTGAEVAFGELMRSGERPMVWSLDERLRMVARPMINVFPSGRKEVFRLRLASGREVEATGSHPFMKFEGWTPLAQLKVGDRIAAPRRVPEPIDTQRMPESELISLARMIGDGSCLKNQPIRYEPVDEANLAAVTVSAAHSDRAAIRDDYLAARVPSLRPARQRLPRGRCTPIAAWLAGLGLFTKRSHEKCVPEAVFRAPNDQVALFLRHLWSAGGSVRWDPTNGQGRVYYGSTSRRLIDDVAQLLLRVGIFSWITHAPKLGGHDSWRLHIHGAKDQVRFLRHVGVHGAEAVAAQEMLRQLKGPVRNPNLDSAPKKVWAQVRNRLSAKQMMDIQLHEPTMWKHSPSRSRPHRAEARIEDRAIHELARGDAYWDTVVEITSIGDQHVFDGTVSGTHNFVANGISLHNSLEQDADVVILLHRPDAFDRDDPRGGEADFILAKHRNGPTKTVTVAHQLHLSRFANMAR

[12] = target: Genome polyprotein (dengue virus type 2, UniProt P29990); experiment: Dengue-2 NS5 methyltransferase inhibitors, primary screen, biochemical, confirmation dose response (AID 588689); type: functional
[13] = target: T5, Heat shock factor protein 1 (Mus musculus, UniProt P38532); experiment: HSF1 potentiators in luciferase reporter cells, confirmation, cell-based, NIH3T3, luminescence, dose retest (AID 435004); type: functional;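 note: stress induced by proteasome inhibitor MG132 added 30 min after compound; luciferase reporter driven by HSF1 response element in NIH3T3 cells; actives raise luminescence as potentiators of the MG132 stress response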
T5 sequence (P38532 whole entry): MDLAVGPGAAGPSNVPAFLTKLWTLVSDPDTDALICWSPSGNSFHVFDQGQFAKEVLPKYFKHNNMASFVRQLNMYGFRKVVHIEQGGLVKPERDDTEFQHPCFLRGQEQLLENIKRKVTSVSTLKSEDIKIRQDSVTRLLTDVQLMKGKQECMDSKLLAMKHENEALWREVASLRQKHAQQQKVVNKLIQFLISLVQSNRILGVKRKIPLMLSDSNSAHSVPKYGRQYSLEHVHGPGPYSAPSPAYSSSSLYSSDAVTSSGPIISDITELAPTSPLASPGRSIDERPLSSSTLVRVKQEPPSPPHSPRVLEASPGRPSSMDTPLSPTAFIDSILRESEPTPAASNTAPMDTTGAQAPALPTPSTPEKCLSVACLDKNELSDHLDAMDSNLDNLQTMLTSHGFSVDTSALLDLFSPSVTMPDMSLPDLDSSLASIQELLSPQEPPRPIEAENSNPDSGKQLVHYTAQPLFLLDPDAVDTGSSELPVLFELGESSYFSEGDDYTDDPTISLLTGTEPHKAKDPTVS

[14] = test system: Vero; experiment: Vero cell cytotoxicity, cytotoxicity control for flavivirus capping enzyme inhibitors (AID 588742); type: functional; details: Chlorocebus sabaeus
[15] = target: T6, Protein RecA (Mycobacterium tuberculosis, UniProt P9WHJ3); experiment: Fluorescence Cell-Free Homogeneous Dose Retest to Identify Inhibitors of RecA-Intein Splicing Activity. [Related pubchem assays (depositor defined):AID2097, AID2223, AID489010, AID492950]; type: functional
T6 sequence (P9WHJ3 whole entry): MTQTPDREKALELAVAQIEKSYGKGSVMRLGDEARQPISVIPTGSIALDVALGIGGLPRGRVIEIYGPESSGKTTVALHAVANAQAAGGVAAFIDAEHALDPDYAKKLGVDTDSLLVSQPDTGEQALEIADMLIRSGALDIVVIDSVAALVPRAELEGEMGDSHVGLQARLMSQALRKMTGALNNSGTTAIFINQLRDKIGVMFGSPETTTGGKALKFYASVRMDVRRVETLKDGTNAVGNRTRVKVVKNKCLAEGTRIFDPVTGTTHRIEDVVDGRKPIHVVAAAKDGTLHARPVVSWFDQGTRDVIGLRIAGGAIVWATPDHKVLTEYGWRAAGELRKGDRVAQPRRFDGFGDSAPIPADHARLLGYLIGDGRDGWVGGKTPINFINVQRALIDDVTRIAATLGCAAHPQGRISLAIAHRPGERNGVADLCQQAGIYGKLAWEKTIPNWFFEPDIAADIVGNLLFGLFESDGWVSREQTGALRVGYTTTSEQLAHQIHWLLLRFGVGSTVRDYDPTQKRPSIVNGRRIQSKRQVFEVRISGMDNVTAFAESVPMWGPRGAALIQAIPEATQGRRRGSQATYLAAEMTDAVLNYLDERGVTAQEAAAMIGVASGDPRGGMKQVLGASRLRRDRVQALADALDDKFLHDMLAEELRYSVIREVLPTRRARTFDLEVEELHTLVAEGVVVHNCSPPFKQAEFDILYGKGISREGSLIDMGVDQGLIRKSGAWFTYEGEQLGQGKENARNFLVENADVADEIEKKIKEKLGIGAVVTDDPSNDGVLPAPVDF

[16] = target: T7, Rac GTPase-activating protein 1 (Homo sapiens, UniProt Q9H0H5); experiment: MgcRacGAP GTPase-activating activity inhibitors, confirmation, biochemical, ADP Hunter fluorescence, primary and confirmatory (AID 624330); type: functional
T7 sequence (Q9H0H5 whole entry): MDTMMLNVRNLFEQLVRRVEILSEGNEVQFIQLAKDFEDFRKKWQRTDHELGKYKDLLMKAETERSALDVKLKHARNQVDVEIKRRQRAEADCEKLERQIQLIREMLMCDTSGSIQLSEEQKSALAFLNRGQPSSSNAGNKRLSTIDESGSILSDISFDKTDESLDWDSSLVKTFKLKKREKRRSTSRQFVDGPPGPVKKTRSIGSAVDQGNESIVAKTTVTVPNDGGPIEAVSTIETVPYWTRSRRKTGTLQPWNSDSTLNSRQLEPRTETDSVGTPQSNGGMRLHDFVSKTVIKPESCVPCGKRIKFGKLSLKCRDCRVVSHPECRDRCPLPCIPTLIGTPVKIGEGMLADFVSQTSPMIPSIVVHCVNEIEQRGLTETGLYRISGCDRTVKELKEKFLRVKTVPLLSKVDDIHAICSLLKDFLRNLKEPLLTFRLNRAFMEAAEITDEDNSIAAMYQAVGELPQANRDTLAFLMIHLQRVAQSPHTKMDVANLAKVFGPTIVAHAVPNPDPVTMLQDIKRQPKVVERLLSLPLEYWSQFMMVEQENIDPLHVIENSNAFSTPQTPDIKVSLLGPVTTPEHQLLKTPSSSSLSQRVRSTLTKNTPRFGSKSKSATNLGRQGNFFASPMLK

Sequence of Voltage-gated inwardly rectifying potassium channel KCNH2 (Q12809 whole entry): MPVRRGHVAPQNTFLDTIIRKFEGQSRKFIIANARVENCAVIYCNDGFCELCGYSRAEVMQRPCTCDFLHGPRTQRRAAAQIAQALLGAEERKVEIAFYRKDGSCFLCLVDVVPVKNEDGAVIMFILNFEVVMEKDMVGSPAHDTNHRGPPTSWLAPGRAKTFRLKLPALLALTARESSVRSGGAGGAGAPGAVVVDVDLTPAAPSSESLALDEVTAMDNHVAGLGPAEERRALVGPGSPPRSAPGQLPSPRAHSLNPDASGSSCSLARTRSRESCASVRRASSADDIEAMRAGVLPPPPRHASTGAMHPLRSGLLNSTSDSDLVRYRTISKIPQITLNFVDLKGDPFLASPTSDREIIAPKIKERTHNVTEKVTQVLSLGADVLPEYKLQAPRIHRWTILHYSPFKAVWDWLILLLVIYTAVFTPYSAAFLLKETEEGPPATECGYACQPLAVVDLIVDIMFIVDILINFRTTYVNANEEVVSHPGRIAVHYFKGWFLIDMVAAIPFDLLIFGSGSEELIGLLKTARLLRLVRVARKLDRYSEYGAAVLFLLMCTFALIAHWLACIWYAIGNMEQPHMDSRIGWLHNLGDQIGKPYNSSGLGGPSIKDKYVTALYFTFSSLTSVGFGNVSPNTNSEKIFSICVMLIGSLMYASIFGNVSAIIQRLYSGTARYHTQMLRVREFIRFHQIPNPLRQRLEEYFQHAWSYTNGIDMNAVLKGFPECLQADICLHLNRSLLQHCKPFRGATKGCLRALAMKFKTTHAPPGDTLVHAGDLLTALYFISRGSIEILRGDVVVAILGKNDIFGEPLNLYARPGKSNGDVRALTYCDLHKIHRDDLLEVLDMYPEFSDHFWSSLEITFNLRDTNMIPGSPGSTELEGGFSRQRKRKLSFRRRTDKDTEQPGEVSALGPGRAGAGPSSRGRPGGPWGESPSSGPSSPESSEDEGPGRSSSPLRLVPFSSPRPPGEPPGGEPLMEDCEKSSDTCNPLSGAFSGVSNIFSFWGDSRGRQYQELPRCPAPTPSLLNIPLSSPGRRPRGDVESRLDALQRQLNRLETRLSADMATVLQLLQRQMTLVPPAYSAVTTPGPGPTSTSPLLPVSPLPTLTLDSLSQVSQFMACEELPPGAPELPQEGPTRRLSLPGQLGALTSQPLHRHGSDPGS
Sequence of Genome polyprotein (P29990 2492-3391 limits assumed): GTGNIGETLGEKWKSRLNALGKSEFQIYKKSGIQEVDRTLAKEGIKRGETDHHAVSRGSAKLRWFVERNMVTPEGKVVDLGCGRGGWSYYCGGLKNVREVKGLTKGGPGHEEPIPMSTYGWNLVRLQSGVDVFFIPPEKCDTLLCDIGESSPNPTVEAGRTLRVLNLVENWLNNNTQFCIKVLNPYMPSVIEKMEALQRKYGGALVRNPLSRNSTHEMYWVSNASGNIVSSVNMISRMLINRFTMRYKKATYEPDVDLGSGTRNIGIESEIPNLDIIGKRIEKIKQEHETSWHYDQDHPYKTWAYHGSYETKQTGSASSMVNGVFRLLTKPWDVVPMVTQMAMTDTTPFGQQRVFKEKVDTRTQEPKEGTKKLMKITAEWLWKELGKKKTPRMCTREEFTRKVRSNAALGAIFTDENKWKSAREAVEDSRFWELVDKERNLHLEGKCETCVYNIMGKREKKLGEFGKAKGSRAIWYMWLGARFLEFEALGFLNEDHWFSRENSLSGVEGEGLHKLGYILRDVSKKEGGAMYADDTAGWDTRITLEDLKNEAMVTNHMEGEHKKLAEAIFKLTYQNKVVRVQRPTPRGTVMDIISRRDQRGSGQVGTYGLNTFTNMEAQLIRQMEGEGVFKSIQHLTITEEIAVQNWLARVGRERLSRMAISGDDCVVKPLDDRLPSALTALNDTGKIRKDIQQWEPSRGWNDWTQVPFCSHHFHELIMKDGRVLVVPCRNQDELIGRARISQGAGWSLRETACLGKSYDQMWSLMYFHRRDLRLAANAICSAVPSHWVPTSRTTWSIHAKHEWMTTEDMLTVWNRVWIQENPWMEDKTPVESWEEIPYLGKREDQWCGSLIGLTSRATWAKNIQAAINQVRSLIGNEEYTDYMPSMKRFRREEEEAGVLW
Sequence of Fatty acid synthase (P49327 whole entry, the tested form may be a part): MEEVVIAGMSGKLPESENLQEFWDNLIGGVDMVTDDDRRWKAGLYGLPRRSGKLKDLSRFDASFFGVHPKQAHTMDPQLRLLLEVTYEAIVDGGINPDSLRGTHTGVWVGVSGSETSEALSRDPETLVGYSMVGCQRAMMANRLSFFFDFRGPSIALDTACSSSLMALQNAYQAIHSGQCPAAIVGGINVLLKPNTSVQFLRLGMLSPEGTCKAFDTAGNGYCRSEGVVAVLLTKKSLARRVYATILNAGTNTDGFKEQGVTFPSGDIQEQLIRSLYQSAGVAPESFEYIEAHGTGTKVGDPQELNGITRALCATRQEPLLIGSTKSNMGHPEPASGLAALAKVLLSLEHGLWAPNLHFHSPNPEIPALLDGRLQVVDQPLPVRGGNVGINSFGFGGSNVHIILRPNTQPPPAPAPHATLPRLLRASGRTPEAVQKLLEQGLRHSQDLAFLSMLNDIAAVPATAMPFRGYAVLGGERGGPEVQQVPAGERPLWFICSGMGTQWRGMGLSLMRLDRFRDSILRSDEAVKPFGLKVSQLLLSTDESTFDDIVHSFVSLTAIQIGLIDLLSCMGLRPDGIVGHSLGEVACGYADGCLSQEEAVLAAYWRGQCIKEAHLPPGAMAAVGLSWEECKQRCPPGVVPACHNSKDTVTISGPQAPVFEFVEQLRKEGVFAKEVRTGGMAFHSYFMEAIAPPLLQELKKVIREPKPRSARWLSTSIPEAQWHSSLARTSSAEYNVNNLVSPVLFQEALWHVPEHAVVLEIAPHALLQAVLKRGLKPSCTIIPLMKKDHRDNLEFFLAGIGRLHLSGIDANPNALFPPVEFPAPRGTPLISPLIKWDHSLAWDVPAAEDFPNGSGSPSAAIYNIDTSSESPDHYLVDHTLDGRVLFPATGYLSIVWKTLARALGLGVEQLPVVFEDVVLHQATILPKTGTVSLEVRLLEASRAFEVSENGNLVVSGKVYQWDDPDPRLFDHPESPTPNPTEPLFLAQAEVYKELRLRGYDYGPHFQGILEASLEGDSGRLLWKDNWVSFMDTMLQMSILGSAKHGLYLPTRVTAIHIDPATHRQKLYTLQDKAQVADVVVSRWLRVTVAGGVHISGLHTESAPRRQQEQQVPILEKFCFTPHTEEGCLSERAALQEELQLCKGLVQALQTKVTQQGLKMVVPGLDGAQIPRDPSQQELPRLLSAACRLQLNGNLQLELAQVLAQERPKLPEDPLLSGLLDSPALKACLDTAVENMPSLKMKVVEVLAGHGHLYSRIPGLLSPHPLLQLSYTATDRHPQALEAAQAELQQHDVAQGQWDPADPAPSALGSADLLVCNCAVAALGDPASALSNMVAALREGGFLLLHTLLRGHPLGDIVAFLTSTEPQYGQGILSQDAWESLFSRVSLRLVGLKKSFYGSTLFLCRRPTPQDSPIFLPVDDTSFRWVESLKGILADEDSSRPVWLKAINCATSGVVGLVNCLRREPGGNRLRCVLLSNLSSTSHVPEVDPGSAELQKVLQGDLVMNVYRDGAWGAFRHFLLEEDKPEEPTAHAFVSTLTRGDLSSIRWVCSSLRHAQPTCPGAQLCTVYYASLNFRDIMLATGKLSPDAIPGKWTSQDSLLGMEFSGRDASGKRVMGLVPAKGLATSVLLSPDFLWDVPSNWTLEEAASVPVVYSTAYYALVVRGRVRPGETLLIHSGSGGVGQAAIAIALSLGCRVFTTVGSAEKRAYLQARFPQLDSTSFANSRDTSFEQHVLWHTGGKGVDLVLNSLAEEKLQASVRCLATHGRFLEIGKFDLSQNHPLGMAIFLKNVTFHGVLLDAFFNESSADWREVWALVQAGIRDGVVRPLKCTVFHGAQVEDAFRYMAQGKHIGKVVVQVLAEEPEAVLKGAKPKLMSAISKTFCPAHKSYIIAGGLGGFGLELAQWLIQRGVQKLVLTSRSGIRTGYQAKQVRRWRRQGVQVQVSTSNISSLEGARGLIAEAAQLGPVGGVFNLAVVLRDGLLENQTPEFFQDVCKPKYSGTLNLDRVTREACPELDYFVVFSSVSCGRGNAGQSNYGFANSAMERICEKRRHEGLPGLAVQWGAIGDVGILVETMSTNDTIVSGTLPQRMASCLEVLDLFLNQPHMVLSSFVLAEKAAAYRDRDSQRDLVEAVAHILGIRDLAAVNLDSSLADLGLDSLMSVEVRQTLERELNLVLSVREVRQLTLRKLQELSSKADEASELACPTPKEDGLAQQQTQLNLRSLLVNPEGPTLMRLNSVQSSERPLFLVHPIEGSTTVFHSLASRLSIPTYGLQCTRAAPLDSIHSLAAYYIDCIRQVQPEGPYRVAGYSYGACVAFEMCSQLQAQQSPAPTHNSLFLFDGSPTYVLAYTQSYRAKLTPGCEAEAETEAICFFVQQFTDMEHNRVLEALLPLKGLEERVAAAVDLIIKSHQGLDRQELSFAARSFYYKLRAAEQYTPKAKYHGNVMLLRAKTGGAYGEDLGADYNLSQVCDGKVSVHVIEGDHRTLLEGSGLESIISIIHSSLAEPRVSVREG
Sequence of Glyceraldehyde-3-phosphate dehydrogenase (P04406 whole entry): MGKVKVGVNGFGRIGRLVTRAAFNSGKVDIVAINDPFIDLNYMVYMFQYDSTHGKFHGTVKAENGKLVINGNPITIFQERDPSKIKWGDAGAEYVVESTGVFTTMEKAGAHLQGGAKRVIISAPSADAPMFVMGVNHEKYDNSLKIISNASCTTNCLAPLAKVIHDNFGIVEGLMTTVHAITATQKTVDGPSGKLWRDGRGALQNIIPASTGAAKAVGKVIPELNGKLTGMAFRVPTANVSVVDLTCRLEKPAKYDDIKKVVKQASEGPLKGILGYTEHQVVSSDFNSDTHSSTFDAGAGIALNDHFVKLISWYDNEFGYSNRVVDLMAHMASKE

O=C1C(Cl)=C(N2CCCC2)C(=O)N1c1ccc(Cl)c(Cl)c1
IC50 [1]: > 100 µM (not active) | IC50 [2]: > 100 µM (not active) | IC50 [3]: > 100 µM (not active)

Cc1ccc(-n2nnc(-c3cnc4ccccc4c3)n2)cc1
IC50 [1]: > 100 µM (not active) | IC50 [2]: > 100 µM (not active)

CNC(=O)N(c1ccccc1)c1ccccc1
IC50 [4]: > 100 µM (not active)

CCOC(=O)N1CCN(S(=O)(=O)c2ccc(C(=O)N(CCN(C)C)c3nc4ccc(Cl)cc4s3)cc2)CC1
EC50 [5]: 0.07 µM (active) | EC50 [6]: > 60 µM (not active) | EC50 [7]: < 0.1 µM (active)

Cc1cccc(N2CCN(C(=O)CNC(=O)c3cccc([N+](=O)[O-])c3)CC2)c1C
IC50 [8]: 1.51 µM (active) | EC50 [9]: 0.38 µM (active)

Cc1ccsc1C(=O)C1CCCN(Cc2c(C)nn(C(C)C)c2C)C1 (configuration not stated)
EC50 [5]: 0.008 µM (active) | EC50 [6]: > 60 µM (not active) | EC50 [7]: < 0.1 µM (active)

FC(F)(F)c1cnc2c(c1)nc(S)n2-c1ccc(Cl)cc1
EC50 [9]: 4.84 µM (active)

COc1ccc2c(c1)-c1nc(/N=C/c3c(O)ccc4ccccc34)sc1CC2
IC50 [10]: 13 µM (active) | AC50 [11]: 40.8 µM (active) | IC50 [12]: 6.25 µM (active) | EC50 [13]: > 260 µM (inactive) | CC50 [14]: > 40 µM (active) | EC50 [15]: > 380 µM (inconclusive) | IC50 [16]: 22.2 µM (active)

— ChEMBL document CHEMBL1201862, “PubChem BioAssay data set” (2004)
